These results are taken from ChEMBL document CHEMBL1127973, “A comparative molecular field analysis derived model of the binding of taxol analogues to microtubules” (Bioorg Med Chem Lett, 1994).

Molecules are shown by their SMILES.

The target in this experiment is Tubulin (Homo sapiens) (UniProt P68371+Q9H4B7+P0DPH7+P68366+Q13509+Q71U36+P04350+Q3ZCM7+P07437+P68363+Q9BQE3+Q6PEY2+Q13885+Q9BVA1+Q9BUF5). Nature of the experiment: Binding affinity to microtubules, activity expressed as ID50 of compound/ID50 of paclitaxel. The experiment is classed as protein-complex assay.
For `CC(=O)O[C@H]1C(=O)[C@@]2(C)[C@H]([C@H](OC(=O)c3ccccc3)[C@]3(O)C[C@H](OC(=O)[C@H](O)[C@@H](NC(=O)c4ccccc4)c4ccccn4)C(C)=C1C3(C)C)[C@]1(OC(C)=O)CO[C@@H]1C[C@@H]2O`, the ID50 ratio was 0.7.

Take `CC(=O)O[C@H]1C(=O)[C@@]2(C)[C@H]([C@H](OC(=O)c3ccccc3)[C@]3(O)C[C@H](OC(=O)[C@H](O)[C@@H](NC(=O)c4c(F)c(F)c(N=[N+]=[N-])c(F)c4F)c4ccccc4)C(C)=C1C3(C)C)[C@]1(OC(C)=O)CO[C@@H]1C[C@@H]2O`: the ID50 ratio is 4.6.

For the compound `CC(=O)O[C@@]12CO[C@@H]1C[C@H](O)[C@@]1(C)C(=O)[C@H](O)C3=C(C)[C@@H](OC(=O)[C@H](O)[C@@H](NC(=O)OC(C)(C)C)c4ccccc4)C[C@@](O)([C@@H](OC(=O)c4ccccc4)[C@H]21)C3(C)C` (stereo in doubt; 40), the ID50 ratio was 0.5.

For the compound `CC(=O)O[C@H]1C(=O)[C@@]2(C)[C@H]([C@H](OC(=O)c3ccccc3)[C@]3(O)C[C@H](OC(=O)[C@H](O)[C@@H](NC(=O)c4ccccc4)c4ccncc4)C(C)=C1C3(C)C)[C@]1(OC(C)=O)CO[C@@H]1C[C@@H]2O`, the ID50 ratio stood at 0.4.

Consider `CC(=O)O[C@H]1C(=O)[C@@]2(C)[C@H]([C@H](OC(=O)c3ccccc3)[C@]3(O)C[C@H](OC(=O)C[C@@H](NC(=O)OC(C)(C)C)c4ccccc4)C(C)=C1C3(C)C)[C@]1(OC(C)=O)CO[C@@H]1C[C@@H]2O`, for which the ID50 ratio was found to be 4.1.

As to `C/C=C(\C)C(=O)N[C@@H](c1ccccc1)[C@@H](O)C(=O)O[C@H]1C[C@@]2(O)[C@@H](OC(=O)c3ccccc3)[C@@H]3[C@]4(OC(C)=O)CO[C@@H]4C[C@H](OC(=O)[C@H](O)[C@@H](O)[C@H](O)CO)[C@@]3(C)C(=O)[C@H](OC(C)=O)C(=C1C)C2(C)C`, the ID50 ratio is 0.5.

As to `CC(=O)O[C@H]1C(=O)[C@@]2(C)[C@H]([C@H](OC(=O)c3ccccc3)[C@]3(O)C[C@H](OC(=O)[C@H](O)[C@@H](NC(=O)c4ccccc4)c4ccc(Cl)c(Cl)c4)C(C)=C1C3(C)C)[C@]1(OC(C)=O)CO[C@@H]1C[C@@H]2O`, the ID50 ratio was determined as 7.1.

Consider `CC(=O)O[C@H]1C(=O)[C@@]2(C)[C@H]([C@H](OC(=O)c3ccccc3)[C@]3(O)C[C@H](OC(=O)[C@H](O)[C@@H](NC(=O)c4ccc(Cl)c(Cl)c4)c4ccccc4)C(C)=C1C3(C)C)[C@]1(OC(C)=O)CO[C@@H]1C[C@@H]2O`, for which the ID50 ratio is 2.1.

Regarding `CC(=O)O[C@@]12CO[C@@H]1C[C@H](O)[C@@]1(C)C(=O)[C@H](O)C3=C(C)[C@@H](OC(=O)C[C@H](NC(=O)OC(C)(C)C)c4ccccc4)C[C@@](O)([C@@H](OC(=O)c4ccccc4)[C@H]21)C3(C)C`, the ID50 ratio worked out at 2.3.

With `CC(=O)O[C@H]1C(=O)[C@]2(C)[C@@H](OC(=O)c3ccc(N=[N+]=[N-])cc3)C[C@H]3OC[C@@]3(OC(C)=O)[C@H]2[C@H](OC(=O)c2ccccc2)[C@]2(O)C[C@H](OC(=O)[C@H](O)[C@@H](NC(=O)c3ccccc3)c3ccccc3)C(C)=C1C2(C)C`, the ID50 ratio was 21.4.

Consider `CC(=O)O[C@H]1C(=O)[C@@]2(C)[C@H]([C@H](OC(=O)c3ccccc3)[C@]3(O)C[C@H](OC(=O)C[C@H](NC(=O)c4ccccc4)c4ccccc4)C(C)=C1C3(C)C)[C@]1(OC(C)=O)CO[C@@H]1C[C@@H]2O`, for which the ID50 ratio was 21.2.

For the compound `CC(=O)O[C@H]1C(=O)[C@@]2(C)[C@H]([C@H](OC(=O)c3ccccc3)[C@]3(O)C[C@H](OC(=O)[C@H](O)[C@@H](NC(=O)c4ccoc4)c4ccccc4)C(C)=C1C3(C)C)[C@]1(OC(C)=O)CO[C@@H]1C[C@@H]2O`, the ID50 ratio was 0.4.

Regarding `CC(=O)O[C@H]1C(=O)[C@@]2(C)[C@H]([C@H](OC(=O)c3ccccc3)[C@]3(O)C[C@H](OC(=O)[C@H](O)Cc4ccccc4)C(C)=C1C3(C)C)[C@]1(OC(C)=O)CO[C@@H]1C[C@@H]2O`, the ID50 ratio is 13.2.

As to `CC(=O)O[C@@]12CO[C@@H]1C[C@H](O)[C@@]1(C)C(=O)[C@H](O)C3=C(C)[C@@H](OC(=O)C[C@@H](O)[C@@H](NC(=O)c4ccccc4)c4ccccc4)C[C@@](O)([C@@H](OC(=O)c4ccccc4)[C@H]21)C3(C)C`, the ID50 ratio was greater than 27.

`CC(=O)O[C@H]1C(=O)[C@@]2(C)[C@H]([C@H](OC(=O)c3ccccc3)[C@]3(O)C[C@H](OC(=O)[C@H](C)O)C(C)=C1C3(C)C)[C@]1(OC(C)=O)CO[C@@H]1C[C@@H]2O`: the ID50 ratio came to 6.4.

As to `CC(=O)O[C@H]1C(=O)[C@@]2(C)[C@H]([C@H](OC(=O)c3ccccc3)[C@]3(O)C[C@H](OC(=O)[C@@H](O)[C@H](NC(=O)c4ccccc4)c4ccccc4)C(C)=C1C3(C)C)[C@]1(OC(C)=O)CO[C@@H]1C[C@@H]2O`, the ID50 ratio came out at 4.5.

As for `CC(=O)O[C@H]1C(=O)[C@]2(C)[C@@H](OC(=O)c3c(F)c(F)c(N=[N+]=[N-])c(F)c3F)C[C@H]3OC[C@@]3(OC(C)=O)[C@H]2[C@H](OC(=O)c2ccccc2)[C@]2(O)C[C@H](OC(=O)[C@H](O)[C@@H](NC(=O)c3ccccc3)c3ccccc3)C(C)=C1C2(C)C`, the ID50 ratio is greater than 22.4.

For `CC(=O)O[C@H]1C(=O)[C@@]2(C)[C@H]([C@H](OC(=O)c3ccccc3)[C@]3(O)C[C@H](OC(=O)[C@H](O)[C@@H](NC(=O)CC(C)C)c4ccccc4)C(C)=C1C3(C)C)[C@]1(OC(C)=O)CO[C@@H]1C[C@@H]2O`, the ID50 ratio came out at 1.2.

In the case of `CC(=O)O[C@H]1C(=O)[C@@]2(C)[C@H]([C@H](OC(=O)c3ccccc3)[C@]3(O)C[C@H](OC(=O)[C@H](O)[C@@H](NC(=O)c4ccc(F)cc4)c4ccccc4)C(C)=C1C3(C)C)[C@]1(OC(C)=O)CO[C@@H]1C[C@@H]2O`, the ID50 ratio was determined as 1.2.

For `CC(=O)O[C@H]1C(=O)[C@]2(C)[C@@H](OC(=O)c3ccc(C(=[N+]=[N-])C(F)(F)F)cc3)C[C@H]3OC[C@@]3(OC(C)=O)[C@H]2[C@H](OC(=O)c2ccccc2)[C@]2(O)C[C@H](OC(=O)[C@H](O)[C@@H](NC(=O)c3ccccc3)c3ccccc3)C(C)=C1C2(C)C`, the ID50 ratio is 3.4.

Take `CCC(=O)O[C@H]1C[C@@]2(O)[C@@H](OC(=O)c3ccccc3)[C@@H]3[C@]4(OC(C)=O)CO[C@@H]4C[C@H](O)[C@@]3(C)C(=O)[C@H](OC(C)=O)C(=C1C)C2(C)C`: the ID50 ratio is 52.

As to `CC(=O)O[C@@]12CO[C@@H]1C[C@H](O)[C@@]1(C)C(=O)CC3=C(C)[C@@H](OC(=O)[C@H](O)[C@@H](NC(=O)c4ccccc4)c4ccccc4)C[C@@](O)([C@@H](OC(=O)c4ccccc4)[C@H]21)C3(C)C` (stereo in doubt; 17), the ID50 ratio was determined as 143.

Take `CC(=O)O[C@H]1C(=O)[C@@]2(C)[C@H]([C@H](OC(=O)c3ccccc3)[C@]3(O)C[C@H](OC(=O)[C@H](O)CNC(=O)c4ccccc4)C(C)=C1C3(C)C)[C@]1(OC(C)=O)CO[C@@H]1C[C@@H]2O`: the ID50 ratio was 5.6.

As to `CC(=O)O[C@H]1C(=O)[C@@]2(C)[C@H]([C@H](OC(=O)c3ccccc3)[C@]3(O)C[C@H](OC(=O)[C@H](O)[C@@H](NC(=O)/C(C)=N/NC(=O)OC(C)(C)C)c4ccccc4)C(C)=C1C3(C)C)[C@]1(OC(C)=O)CO[C@@H]1C[C@@H]2O`, the ID50 ratio stood at 14.1.

With `CC(=O)O[C@H]1C(=O)[C@@]2(C)[C@H]([C@H](OC(=O)c3ccccc3)[C@]3(O)C[C@H](OC(=O)[C@H](O)[C@@H](NC(=O)C(C)(C)C)c4ccccc4)C(C)=C1C3(C)C)[C@]1(OC(C)=O)CO[C@@H]1C[C@@H]2O`, the ID50 ratio was 2.6.

For the compound `CC(=O)O[C@H]1C(=O)[C@@]2(C)[C@H]([C@H](OC(=O)c3ccccc3)[C@]3(O)C[C@H](OC(=O)[C@H](O)[C@@H](NC(=O)c4ccccc4)c4ccoc4)C(C)=C1C3(C)C)[C@]1(OC(C)=O)CO[C@@H]1C[C@@H]2O`, the ID50 ratio stood at 0.9.

`CC(=O)O[C@H]1C(=O)[C@@]2(C)[C@H]([C@H](OC(=O)c3ccccc3)[C@]3(O)C[C@H](OC(=O)[C@H](O)[C@@H](NC(=O)c4ccccc4)c4ccco4)C(C)=C1C3(C)C)[C@]1(OC(C)=O)CO[C@@H]1C[C@@H]2O`: the ID50 ratio worked out at 0.9.

Turning to `CC(=O)O[C@H]1C(=O)[C@@]2(C)[C@H]([C@H](OC(=O)c3ccccc3)[C@]3(O)C[C@H](OC(=O)[C@H](O)[C@@H](NC(=O)/C(C)=N/O)c4ccccc4)C(C)=C1C3(C)C)[C@]1(OC(C)=O)CO[C@@H]1C[C@@H]2O`, the ID50 ratio came out at 3.5.

On to `CC(=O)O[C@H]1C(=O)[C@@]2(C)[C@H]([C@H](OC(=O)c3ccccc3)[C@]3(O)C[C@H](OC(=O)[C@H](O)[C@@H](NC(=O)c4ccco4)c4ccccc4)C(C)=C1C3(C)C)[C@]1(OC(C)=O)CO[C@@H]1C[C@@H]2O`, for which the ID50 ratio was found to be 0.8.

As for `CC(=O)O[C@@]12CO[C@@H]1C[C@H](O)[C@@]1(C)C(=O)[C@H](O)C3=C(C)[C@@H](OC(=O)C[C@@H](O)[C@@H](NC(=O)OC(C)(C)C)c4ccccc4)C[C@@](O)([C@@H](OC(=O)c4ccccc4)[C@H]21)C3(C)C`, the ID50 ratio is greater than 27.

Turning to `C/C=C(\C)C(=O)N[C@@H](c1ccccc1)[C@@H](O)C(=O)O[C@H]1C[C@@]2(O)[C@@H](OC(=O)c3ccccc3)[C@@H]3[C@]4(OC(C)=O)CO[C@@H]4C[C@H](O)[C@@]3(C)C(=O)[C@H](OC(C)=O)C(=C1C)C2(C)C`, the ID50 ratio stood at 1.5.

For the compound `CC(=O)O[C@H]1C(=O)[C@@]2(C)[C@H]([C@H](OC(=O)c3ccccc3)[C@]3(O)C[C@H](OC(=O)[C@@H](O)Cc4ccccc4)C(C)=C1C3(C)C)[C@]1(OC(C)=O)CO[C@@H]1C[C@@H]2O`, the ID50 ratio amounted to 15.7.

Regarding `CCCCCC(=O)N[C@@H](c1ccccc1)[C@@H](O)C(=O)O[C@H]1C[C@@]2(O)[C@@H](OC(=O)c3ccccc3)[C@@H]3[C@]4(OC(C)=O)CO[C@@H]4C[C@H](O)[C@@]3(C)C(=O)[C@H](OC(C)=O)C(=C1C)C2(C)C`, the ID50 ratio was determined as 0.4.

With `CC(=O)O[C@H]1C(=O)[C@@]2(C)[C@H]([C@H](OC(=O)c3ccccc3)[C@]3(O)C[C@H](OC(=O)[C@H](O)[C@@H](NC(=O)c4ccccc4C)c4ccccc4)C(C)=C1C3(C)C)[C@]1(OC(C)=O)CO[C@@H]1C[C@@H]2O`, the ID50 ratio came out at 1.9.

Turning to `C/C=C(\C)C(=O)N[C@@H](c1ccccc1)[C@@H](O)C(=O)O[C@H]1C[C@@]2(O)[C@@H](OC(=O)c3ccccc3)[C@@H]3[C@]4(OC(C)=O)CO[C@@H]4C[C@H](O)[C@@]3(C)C(=O)[C@H](O)C(=C1C)C2(C)C`, the ID50 ratio is 5.
